This test has as its target T1, cloned human CCR8 receptor stably expressed in L1.2 cells (Homo sapiens, UniProt P51685).
T1 construct: expressed in transfected cells
Put plainly: whole cell binding screen: inhibition of biotinylated human I309 binding to CCR8 (FMAT 8100 HTS). The conditions noted are these: L1.2/hCCR8 cells, biotinylated human I-309, 10 point concentration response starting at 10 μM; read-out: Ki of compounds to inhibit I-309 binding to CCR8. The method in brief: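 Ten-point dilutions, top 10 μM final, were tested for displacing biotin-I309 from hCCR8-transfected L1.2 cells in HEPES-buffered HBSS with BSA and sodium azide, mixing 0.5 h before FMAT 8100 detection. Signals converted to percent inhibition against untreated wells and a 100 nM excess unlabeled I309 control.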

From patent US7491827B2, “Aryl sulfonamides useful as inhibitors of chemokine receptor activity” (Millennium Pharmaceuticals, Inc., priority 2003, dated 2009) come the findings set out here.

T1 sequence (P51685 whole entry): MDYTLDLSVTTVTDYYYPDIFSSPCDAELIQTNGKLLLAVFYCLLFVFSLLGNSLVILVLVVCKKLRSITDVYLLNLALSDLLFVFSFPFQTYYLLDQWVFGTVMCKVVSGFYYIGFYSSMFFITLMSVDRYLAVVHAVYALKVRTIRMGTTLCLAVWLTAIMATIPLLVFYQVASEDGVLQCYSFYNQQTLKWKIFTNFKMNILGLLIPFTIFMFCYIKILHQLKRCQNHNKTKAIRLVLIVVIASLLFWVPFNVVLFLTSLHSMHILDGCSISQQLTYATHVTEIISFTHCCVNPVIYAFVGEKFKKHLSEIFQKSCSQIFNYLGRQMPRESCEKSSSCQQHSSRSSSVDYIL

For orientation: Ki means a measure of affinity in units of concentration, obtained from inhibition or displacement. On to `Cc1ccccc1C(=O)Nc1ccc(S(=O)(=O)NC2CCCCC2)c2c1CCCC2` [Compound E-9, N-(4-Cyclohexylsulfamoyl-5,6,7,8-tetrahydro-naphthalen-1-yl)-2-methyl-benzamide], for which the inhibitory constant (Ki) was under 500 nM.
